Experimental data published in PubChem BioAssay AID248 (DTP/NCI, 2004).
“And” between values parts separate entries of the source, which are not always exact repeats. Identical values can stand only once. Toxic doses and inconclusive results are not listed. Cut-off read from the data, not from the text of the source: active = T/C of 150% or more; inactive = T/C below 125%.

System: L1210 leukemia ip in BDF1 mice, survival T/C
Experiment: NCI In Vivo Anticancer Drug Screen. Data for tumor model L1210 Leukemia (intraperitoneal) in B6D2F1 (BDF1) mice
Conditions: endpoint: mean survival time, higher = longer survival
Method in brief: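 Mice bearing the transplanted tumor received compound or vehicle. Survival of the treated group was divided by that of the vehicle-treated control group to give the ratio.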

[1] = dose: 30.0 mg/kg/injection, schedule: Q01DX Z (ip), vehicle: carboxymethylcellulose (CMC)
[2] = dose: 60.0 mg/kg/injection, schedule: Q01DX Z (ip), vehicle: carboxymethylcellulose (CMC)
[3] = dose: 50.0 mg/kg/injection, schedule: Q01DX001 (ip), vehicle: carboxymethylcellulose (CMC)
[4] = dose: 100.0 mg/kg/injection, schedule: Q01DX001 (ip), vehicle: carboxymethylcellulose (CMC)
[5] = dose: 200.0 mg/kg/injection, schedule: Q01DX001 (ip), vehicle: carboxymethylcellulose (CMC)
[6] = dose: 400.0 mg/kg/injection, schedule: Q01DX001 (ip), vehicle: carboxymethylcellulose (CMC)
[7] = dose: 50.0 mg/kg/injection, schedule: Q01DX009 (ip), vehicle: saline with Tween-80
[8] = dose: 100.0 mg/kg/injection, schedule: Q01DX009 (ip), vehicle: saline with Tween-80
[9] = dose: 100.0 mg/kg/injection, schedule: Q04DX003 (ip), vehicle: saline with Tween-80
[10] = dose: 200.0 mg/kg/injection, schedule: Q04DX003 (ip), vehicle: saline with Tween-80
[11] = dose: 25.0 mg/kg/injection, schedule: Q01DX009 (ip), vehicle: saline with Tween-80
[12] = dose: 200.0 mg/kg/injection, schedule: Q01DX009 (ip), vehicle: saline with Tween-80
[13] = dose: 400.0 mg/kg/injection, schedule: Q01DX009 (ip), vehicle: saline with Tween-80
[14] = dose: 100.0 mg/kg/injection, schedule: Q01DX001 (ip), vehicle: saline
[15] = dose: 200.0 mg/kg/injection, schedule: Q01DX001 (ip), vehicle: saline
[16] = dose: 400.0 mg/kg/injection, schedule: Q01DX001 (ip), vehicle: saline
[17] = dose: 100.0 mg/kg/injection, schedule: Q01DX009 (ip), vehicle: Klucel (hydroxypropylcellulose) (HPC)
[18] = dose: 200.0 mg/kg/injection, schedule: Q01DX009 (ip), vehicle: Klucel (hydroxypropylcellulose) (HPC)
[19] = dose: 100.0 mg/kg/injection, schedule: Q01DX001 (ip), vehicle: Klucel (hydroxypropylcellulose) (HPC)
[20] = dose: 200.0 mg/kg/injection, schedule: Q01DX001 (ip), vehicle: Klucel (hydroxypropylcellulose) (HPC)
[21] = dose: 100.0 mg/kg/injection, schedule: Q04DX003 (ip), vehicle: Klucel (hydroxypropylcellulose) (HPC)
[22] = dose: 200.0 mg/kg/injection, schedule: Q04DX003 (ip), vehicle: Klucel (hydroxypropylcellulose) (HPC)
[23] = dose: 400.0 mg/kg/injection, schedule: Q01DX009 (ip), vehicle: Klucel (hydroxypropylcellulose) (HPC)
[24] = dose: 400.0 mg/kg/injection, schedule: Q04DX003 (ip), vehicle: Klucel (hydroxypropylcellulose) (HPC)

Measured: T/C

N/C(=N\N=C\c1ccc2c(c1)OCO2)N/N=C\c1ccc2c(c1)OCO2
inactive: dose: 15.0 mg/kg/injection, schedule: Q01DX Z (ip), vehicle: carboxymethylcellulose (CMC) 95 % of control | [1] 101 % of control | [2] 97 % of control | dose: 120.0 mg/kg/injection, schedule: Q01DX Z (ip), vehicle: carboxymethylcellulose (CMC) 94 % of control | dose: 120.0 mg/kg/injection, schedule: Q01DX Z (oral), vehicle: carboxymethylcellulose (CMC) 95 % of control | dose: 240.0 mg/kg/injection, schedule: Q01DX Z (oral), vehicle: carboxymethylcellulose (CMC) 103 % of control | dose: 480.0 mg/kg/injection, schedule: Q01DX Z (oral), vehicle: carboxymethylcellulose (CMC) 101 % of control | dose: 960.0 mg/kg/injection, schedule: Q01DX Z (oral), vehicle: carboxymethylcellulose (CMC) 97 % of control

CCOC(=O)C(C#N)C(CC)(CC)C1CCCCC1 (stereo not given)
inactive: [3] 102 % of control | [4] 102 % of control | [5] 96 % of control | [6] 113 % of control

O=C(CBr)N1CCC2(CC1)SSC1(CCN(C(=O)CBr)CC1)S2
inactive: [7] 96 % of control | [8] 91 % of control | [9] 102 % of control | [10] 105 % of control

COC(=O)CC(c1cccc2ccccc12)c1cccc2ccc3ccccc3c12 (stereo not given)
inactive: dose: 100.0 mg/kg/injection, schedule: Q04DX003 (ip), vehicle: DMSO 92 % of control | dose: 200.0 mg/kg/injection, schedule: Q04DX003 (ip), vehicle: DMSO 94 % of control | dose: 400.0 mg/kg/injection, schedule: Q04DX003 (ip), vehicle: DMSO 89 % of control

NC1CCc2ccccc2C(O)C1c1ccccc1 (stereo not given)
inactive: [11] 97 % of control | dose: 25.0 mg/kg/injection, schedule: Q04DX003 (ip), vehicle: saline with Tween-80 107 % of control | [7] 105 % of control | dose: 50.0 mg/kg/injection, schedule: Q04DX003 (ip), vehicle: saline with Tween-80 104 % of control | [8] 100 % of control | [9] 102 % of control

COc1ccc(C(=O)CBr)c(OC)c1
inactive: dose: 12.5 mg/kg/injection, schedule: Q04DX003 (ip), vehicle: saline 104 % of control | [11] 96 % of control | dose: 25.0 mg/kg/injection, schedule: Q04DX003 (ip), vehicle: saline 97 % of control | dose: 50.0 mg/kg/injection, schedule: Q04DX003 (ip), vehicle: saline 93 % of control | [9] 97 % of control

O=c1cc(Cc2ccccc2)[nH]c(=S)[nH]1
inactive: [8] 94 % of control | [9] 99 % of control | [12] 93 % of control | [10] 97 % of control | [13] 96 % of control | dose: 400.0 mg/kg/injection, schedule: Q04DX003 (ip), vehicle: saline with Tween-80 100 % of control

C/C(=N\O)C(C)(C)C
inactive: dose: 25.0 mg/kg/injection, schedule: Q04DX002 (ip), vehicle: Klucel (hydroxypropylcellulose) (HPC) 98 % of control | dose: 50.0 mg/kg/injection, schedule: Q04DX002 (ip), vehicle: Klucel (hydroxypropylcellulose) (HPC) 91 % of control | dose: 100.0 mg/kg/injection, schedule: Q04DX002 (ip), vehicle: Klucel (hydroxypropylcellulose) (HPC) 94 % of control and 103 % of control

Cc1cc(/C=C/c2ccc(N(CCCl)CCCl)cc2)nc2ccccc12
inactive: [14] 107 % of control | [15] 113 % of control | [16] 103 % of control

CSCCC1NC(=O)C(C(C)=Nc2ccccc2)=C1O (stereo not given)
inactive: [3] 101 % of control | [4] 109 % of control | [5] 104 % of control | [6] 104 % of control

Cc1ccc(N=NN(C)N=Nc2ccc(C)cc2)cc1
inactive: dose: 50.0 mg/kg/injection, schedule: Q01DX001 (ip), vehicle: saline 98 % of control | [14] 95 % of control | [15] 95 % of control | [16] 93 % of control

CC1CC(O)C([N+](=O)[O-])C(O)C1 (stereo not given)
inactive: dose: 12.5 mg/kg/injection, schedule: Q01DX009 (ip), vehicle: saline 102 % of control

COc1ccc(OC)c(NC(=O)c2c(Br)c(Br)c(Br)c(Br)c2C(=O)O)c1
inactive: [17] 109 % of control | [18] 97 % of control

COc1ccc(-n2c(=O)c(N=Nc3ccccc3C)c(O)n(-c3ccc(Cl)cc3)c2=S)cc1
inactive: dose: 50.0 mg/kg/injection, schedule: Q01DX001 (ip), vehicle: Klucel (hydroxypropylcellulose) (HPC) 100 % of control | [19] 100 % of control | [20] 102 % of control

CCOC(=O)Nc1ccccc1
inactive: [17] 97 % of control | [21] 93 % of control | [18] 103 % of control | [22] 93 % of control | [23] 103 % of control | [24] 88 % of control

Ic1ccc(-n2cccc2)cc1
inactive: dose: 100.0 mg/kg/injection, schedule: Q01DX001 (ip), vehicle: steriod suspending solution 95 % of control | dose: 200.0 mg/kg/injection, schedule: Q01DX001 (ip), vehicle: steriod suspending solution 101 % of control | dose: 400.0 mg/kg/injection, schedule: Q01DX001 (ip), vehicle: steriod suspending solution 92 % of control

O=S(=O)(CCCCCCl)Cc1ccccc1
inactive: [14] 93 % of control | [15] 93 % of control | [16] 96 % of control

CC12C=CC3(CCC4C(C)(C)C(=O)C(O)=CC4(C)C3CC1=O)C2 (stereo not given)
inactive: [17] 103 % of control | [21] 95 % of control | [18] 94 % of control | [22] 98 % of control | [23] 94 % of control | [24] 98 % of control

O=S(=O)(/N=C1\C=CC(Br)=C\C1=N/S(=O)(=O)c1ccccc1)c1ccccc1
inactive: [19] 89 % of control | [20] 106 % of control | dose: 400.0 mg/kg/injection, schedule: Q01DX001 (ip), vehicle: Klucel (hydroxypropylcellulose) (HPC) 101 % of control

CN(C)NC(=O)CC(NCc1ccccc1)C(=O)O (stereo not given)
inactive: [8] 94 % of control | [12] 95 % of control | [13] 95 % of control

CC1=CC23C(COC(=O)C24CO4)C(C(=O)O)=CC3C1C (stereo not given)
inactive: dose: 10.0 mg/kg/injection, schedule: Q01DX001 (ip), vehicle: saline 96 % of control

CCOC(=O)c1ccc(N=NN(C)C)cc1
inactive: [1] 97 % of control and 102 % of control | [2] 107 % of control | dose: 90.0 mg/kg/injection, schedule: Q01DX Z (ip), vehicle: carboxymethylcellulose (CMC) 110 % of control and 124 % of control

c1ccc(-c2nc(-c3ccccc3)nc(-c3ccccc3)n2)cc1
inactive: [21] 98 % of control | [22] 94 % of control | [24] 94 % of control

N#CCCCCCCCCC(=O)OCCC#N
inactive: dose: 100.0 mg/kg/injection, schedule: Q01DX001 (ip), vehicle: other 95 % of control | dose: 200.0 mg/kg/injection, schedule: Q01DX001 (ip), vehicle: other 98 % of control | dose: 400.0 mg/kg/injection, schedule: Q01DX001 (ip), vehicle: other 97 % of control
